30 compounds from paper PMC8286840, “Identifying SARS-CoV-2 antiviral compounds by screening for small molecule inhibitors of Nsp3 papain-like protease” (Biochemical Journal, 2021) can be followed below.

For test [1], the target named is T1, SARS-CoV-2 PLpro (nsp3 1564–1878) (Severe acute respiratory syndrome coronavirus 2, UniProt P0DTD1). Put plainly: biochemical. On the set-up: FRET-quenched peptide (Pro3) cleavage by PLpro, 10 min pre-incubation, slope over 20 min, normalised to no-compound control. To be noted: high concentration screen, read-out: % of control remaining.
In test [2] the target is T1, SARS-CoV-2 PLpro (nsp3 1564–1878). Nature of the test: biochemical. On the set-up: FRET-quenched peptide (Pro3) cleavage by PLpro, 10 min pre-incubation, slope over 20 min, normalised to no-compound control. The conditions noted are these: low concentration screen, read-out: % of control remaining.

The structures appear in SMILES notation. Structures can show the parent of a compound that is named as a salt. Where two headings read alike, the source gives them in different places.

Take `COc1ccc(CCN(C)CCCC(C#N)(c2ccc(OC)c(OC)c2)C(C)C)cc1OC` (racemic): the remaining activity at 3.75 µM in test [1] (Well no.=1336) came out at 101%. Also, the remaining activity at 1.25 µM in test [2] (Well no.=1336) is 104%.

For the compound `O=c1[nH]c2ccccc2c2ccccc12` [6(5H)-Phenanthridinone], in test [1] (Well no.=1305), the remaining activity at 3.75 µM came out at 107%. Besides, the remaining activity at 1.25 µM in test [2] (Well no.=1305) was determined as 104%.

For the compound `N#Cc1c(N)nc(SCc2csc(-c3ccc(Cl)cc3)n2)c(C#N)c1-c1ccc(OCCO)cc1` [Capadenoson], the remaining activity at 3.75 µM in test [1] (Well no.=8649) worked out at 102%. Moreover, the remaining activity at 1.25 µM in test [2] (Well no.=8649) turned out to be 106%.

For the compound `C[C@]12CC[C@@H]3c4ccc(O)cc4C[C@@H](CCCCCCCCC[S+]([O-])CCCC(F)(F)C(F)(F)F)[C@H]3[C@@H]1CC[C@@H]2O` (stereo partly shown) [Fulvestrant], the remaining activity at 3.75 µM in test [1] (Well no.=2254) turned out to be 96.8%. Also, the remaining activity at 1.25 µM in test [2] (Well no.=2254) stood at 97.2%.

On to `CC(C)=CCCC1=CC(=O)c2c(O)ccc(O)c2C1=O` [Deoxyshikonin], for which the remaining activity at 3.75 µM in test [1] (Well no.=3164) is 85.7%. Moreover, the remaining activity at 1.25 µM in test [2] (Well no.=3164) amounted to 86.1%.

Consider `COC(=O)C1=C(C)NC(C)=C(C(=O)OCCN2CCN(C(c3ccccc3)c3ccccc3)CC2)C1c1cccc([N+](=O)[O-])c1` (stereo not shown) [Manidipine], for which, in test [1] (Well no.=1788), the remaining activity at 3.75 µM turned out to be 99.9%. For the same compound, the remaining activity at 1.25 µM in test [2] (Well no.=1788) is 104%.

Regarding `Cc1cccc(C)c1OCC(C)N` (stereo not shown) [Mexiletene hydrochloride], the remaining activity at 3.75 µM in test [1] (Well no.=1066) came to 99.6%. Besides, the remaining activity at 1.25 µM in test [2] (Well no.=1066) worked out at 102%.

Turning to `CCOC(=O)[C@@H](N)CCC(=O)N[C@@H](CSCc1ccccc1)C(=O)N[C@@H](C(=O)OCC)c1ccccc1` [ethyl N5-((R)-3-(benzylthio)-1-(((R)-2-ethoxy-2-oxo-1-phenylethyl)amino)-1-oxopropan-2-yl)-L-glutaminate], in test [1] (Well no.=5457), the remaining activity at 3.75 µM is 108%. Also, the remaining activity at 1.25 µM in test [2] (Well no.=5457) worked out at 105%.

For the compound `O=c1[nH]c2ccc(Cl)cc2c(N[C@@H]2CN3CCC2CC3)c1-c1nc2ccccc2[nH]1` [CHIR-124], the remaining activity at 3.75 µM in test [1] (Well no.=5338) was found to be 97.2%. For the same compound, in test [2] (Well no.=5338), the remaining activity at 1.25 µM is 96.2%.

With `Oc1c(Cl)cc(Cl)c2cccnc12` [Chloroxine], the remaining activity at 3.75 µM in test [1] (Well no.=5266) amounted to 97.2%. In addition, the remaining activity at 1.25 µM in test [2] (Well no.=5266) came to 91.9%.

As to `CCN1C(=O)/C(=C/c2ccccc2)SC1=S` [BTR-1], in test [1] (Well no.=7124), the remaining activity at 3.75 µM came out at 95.2%. For the same compound, the remaining activity at 1.25 µM in test [2] (Well no.=7124) stood at 99.8%.

For `CN1[C@@H]2CC[C@H]1C[C@@H](OC(=O)C(CO)c1ccccc1)C2` (stereo partly shown) [Atropine sulfate], the remaining activity at 3.75 µM in test [1] (Well no.=3238) was determined as 102%. Besides, the results for the remaining activity at 1.25 µM in test [2] (Well no.=197) and in test [2] (Well no.=3238) were 99.5% and 102%, respectively.

In the case of `Cn1cnc([N+](=O)[O-])c1Sc1ncnc2[nH]cnc12` [Azathioprine], the remaining activity at 3.75 µM came to 100% in test [1] (Well no.=111) and 97.6% in test [1] (Well no.=1834). The remaining activity at 1.25 µM in test [2] (Well no.=111) worked out at 99.7%; in test [2] (Well no.=1834), 102%.

For `C[C@]12CC[C@@H](O)C[C@@H]1CC[C@@H]1[C@@H]2CC[C@]2(C)C(=O)CC[C@@H]12` [Androsterone], the remaining activity at 3.75 µM in test [1] (Well no.=298) was 99.3%; in test [1] (Well no.=6435) it was 97.6%. Besides, the remaining activity at 1.25 µM in test [2] (Well no.=298) came to 98.5%; in test [2] (Well no.=6435) it was 99.9%.

Take `Cn1cc(-c2ccc3nnc(C(F)(F)c4ccc5ncccc5c4)n3n2)cn1` [JNJ38877605]: the remaining activity at 3.75 µM in test [1] (Well no.=2887) is 102%. The remaining activity at 1.25 µM in test [2] (Well no.=2887) turned out to be 101%.

`CN1CCCCC1Cn1cc(C(=O)c2cc([N+](=O)[O-])ccc2I)c2ccccc21` (stereo not shown) [AM-1241]: the remaining activity at 3.75 µM in test [1] (Well no.=5289) was 99%. Also, the remaining activity at 1.25 µM in test [2] (Well no.=5289) turned out to be 101%.

Turning to `Cc1nc(C(=O)N2CCC[C@H]2Cc2nnc(-c3ccccc3)o2)c(-c2ccccc2F)s1` [SB-674042], in test [1] (Well no.=7083), the remaining activity at 3.75 µM came to 98.9%. Also, the remaining activity at 1.25 µM in test [2] (Well no.=7083) amounted to 102%.

For `NCCc1c[nH]cn1` [Histamine], the values for the remaining activity at 3.75 µM in test [1] (Well no.=6665) and in test [1] (Well no.=7059) were 103% and 109%, respectively. The remaining activity at 1.25 µM in test [2] (Well no.=6665) was 105%; in test [2] (Well no.=7059) it was 102%.

Take `NC(=O)C(c1ccccc1)(c1ccccc1)[C@@H]1CCN(CCc2ccc3c(c2)CCO3)C1` [Darifenacin (hydrobromide)]: in test [1] (Well no.=7341), the remaining activity at 3.75 µM was found to be 89.4%. Also, the remaining activity at 1.25 µM in test [2] (Well no.=7341) came to 95.3%.

Regarding `O=C1Cc2cc(CCN3CCN(c4nsc5ccccc45)CC3)c(Cl)cc2N1` [Ziprasidone HCl], in test [1] (Well no.=4859), the remaining activity at 3.75 µM was 93.7%. For the same compound, the remaining activity at 1.25 µM in test [2] (Well no.=4859) was 92.1%.

`Nc1nc(SCc2ccc([N+](=O)[O-])cc2)c2ncn([C@@H]3O[C@H](CO)[C@@H](O)[C@H]3O)c2n1` [S-(4-Nitrobenzyl)-6-thioguanosine]: the remaining activity at 3.75 µM in test [1] (Well no.=53) came to 102%. In addition, in test [2] (Well no.=53), the remaining activity at 1.25 µM was 101%.

As to `O=C(O)COC(=O)Cc1ccccc1Nc1c(Cl)cccc1Cl` [Aceclofenac], the remaining activity at 3.75 µM in test [1] (Well no.=2071) was 102%. Moreover, in test [2] (Well no.=2071), the remaining activity at 1.25 µM is 103%.

Regarding `COc1cc(NC(=O)CCN2CCC(OC(=O)Nc3ccccc3-c3ccccc3)CC2)c(Cl)cc1CNC[C@H](O)c1ccc(O)c2[nH]c(=O)ccc12` [Batefenterol], the remaining activity at 3.75 µM in test [1] (Well no.=7045) is 109%. Moreover, the remaining activity at 1.25 µM in test [2] (Well no.=7045) was found to be 106%.

Turning to `CCCCCCCCCCCCCCCCCCCCCCCC(=O)O` [Tetracosanoic acid], the remaining activity at 3.75 µM in test [1] (Well no.=4502) was 94.2%. The remaining activity at 1.25 µM in test [2] (Well no.=4502) came to 92.1%.

Consider `CSc1nc2ccc3nc(NC(=O)C(c4ccccc4)c4ccccc4)sc3c2s1` [Gue1654], for which the remaining activity at 3.75 µM in test [1] (Well no.=5404) stood at 92.4%. Further, in test [2] (Well no.=5404), the remaining activity at 1.25 µM was found to be 90.4%.

For `O=[N+]([O-])c1ccc(CSc2ncnc3c2ncn3[C@@H]2O[C@H](CO)[C@@H](O)[C@H]2O)cc1` [S-(4-Nitrobenzyl)-6-thioinosine], in test [1] (Well no.=949), the remaining activity at 3.75 µM was found to be 101%. Moreover, the remaining activity at 1.25 µM in test [2] (Well no.=949) is 105%.

In the case of `Cc1oc(-c2ccccc2)nc1CCC(=O)c1ccc(CC2SC(=O)NC2=O)cc1` (stereo not shown) [Darglitazone sodium salt], the remaining activity at 3.75 µM in test [1] (Well no.=5504) was 98%. Also, the remaining activity at 1.25 µM in test [2] (Well no.=5504) worked out at 90.6%.

For `CC(C)(C)NC(=O)[C@H]1CC[C@H]2[C@@H]3CC[C@H]4NC(=O)C=C[C@]4(C)[C@H]3CC[C@]12C` [Finasteride], the remaining activity at 3.75 µM in test [1] (Well no.=2086) turned out to be 104%. The remaining activity at 1.25 µM in test [2] (Well no.=2086) is 99%.

As for `CCCC(C(=O)OCCN(CC)CC)(c1ccccc1)c1ccccc1` [SKF-525A hydrochloride], the remaining activity at 3.75 µM in test [1] (Well no.=902) worked out at 101%. Besides, the remaining activity at 1.25 µM in test [2] (Well no.=902) was 105%.

In the case of `CCOC(=O)[C@H](CCc1ccccc1)N[C@H]1CS[C@H](c2cccs2)CN(CC(=O)O)C1=O` [Temocapril (hydrochloride)], the remaining activity at 3.75 µM in test [1] (Well no.=8218) was 99.9%. Also, in test [2] (Well no.=8218), the remaining activity at 1.25 µM came out at 103%.
